In assay [1] the test system is H3K27 methylation in G401 cell. The experiment in a line: ELISA (H3K27 methylation) assay in G401 cells. It is filed as cell-based, human. The conditions noted are these: read-out: (c) IC50 ELISA Qualified. As to the method:
(§1) A 6 μL solution of 3 μM of the peptide substrate H3K27Me0 (histone H3[21-44]-biotin) in reaction buffer was added to initiate each reaction. […] ELISA (H3K27 Methylation) Assay

Assay [2] has as its target wild type PRC2 (wtPRC2) complex (Homo sapiens (Human), UniProt O75530). The experiment in a line: EED LC-MS assay. It is filed as biochemical. The conditions noted are these: read-out: (b) IC50 EED LC-MS Qualified. As to the method: as §1
In assay [3] the target is EED (1-441)-His protein (Homo sapiens (Human), UniProt O75530). The assay can be described thus: EED-H3K27Me3 peptide competition binding assay by AlphaScreen. Conditions: read-out: (a) IC50 EED Alphascreen binding Qualified. The source says: EED-H3K27Me3 peptide competition binding assay by AlphaScreen (α-screen)
EED (1-441)-His protein, sequence (O75530 whole entry): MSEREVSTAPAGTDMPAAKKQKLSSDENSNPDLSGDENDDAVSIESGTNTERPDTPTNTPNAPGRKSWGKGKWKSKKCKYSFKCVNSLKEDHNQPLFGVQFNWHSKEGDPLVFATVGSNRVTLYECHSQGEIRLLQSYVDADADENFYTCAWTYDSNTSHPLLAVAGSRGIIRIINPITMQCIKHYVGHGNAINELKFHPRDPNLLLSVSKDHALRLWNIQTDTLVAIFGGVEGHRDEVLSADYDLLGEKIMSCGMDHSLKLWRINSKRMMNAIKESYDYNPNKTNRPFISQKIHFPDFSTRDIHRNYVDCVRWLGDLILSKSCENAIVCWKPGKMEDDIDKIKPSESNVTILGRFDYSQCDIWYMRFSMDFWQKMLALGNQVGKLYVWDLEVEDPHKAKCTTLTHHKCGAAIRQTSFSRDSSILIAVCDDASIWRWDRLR
(In Alpha technology, singlet oxygen from a donor bead excites a nearby acceptor bead.)

The record followed here is US9580437B2, “Triazolopyrimidine compounds and uses thereof” (Novartis AG, priority 2014, dated 2017).

Broadly, the IC50 is the concentration at which inhibition is half-maximal.

wild type PRC2 (wtPRC2) complex, sequence (O75530 whole entry): as above
wild type PRC2 (wtPRC2) complex, sequence (Q15910 whole entry partner): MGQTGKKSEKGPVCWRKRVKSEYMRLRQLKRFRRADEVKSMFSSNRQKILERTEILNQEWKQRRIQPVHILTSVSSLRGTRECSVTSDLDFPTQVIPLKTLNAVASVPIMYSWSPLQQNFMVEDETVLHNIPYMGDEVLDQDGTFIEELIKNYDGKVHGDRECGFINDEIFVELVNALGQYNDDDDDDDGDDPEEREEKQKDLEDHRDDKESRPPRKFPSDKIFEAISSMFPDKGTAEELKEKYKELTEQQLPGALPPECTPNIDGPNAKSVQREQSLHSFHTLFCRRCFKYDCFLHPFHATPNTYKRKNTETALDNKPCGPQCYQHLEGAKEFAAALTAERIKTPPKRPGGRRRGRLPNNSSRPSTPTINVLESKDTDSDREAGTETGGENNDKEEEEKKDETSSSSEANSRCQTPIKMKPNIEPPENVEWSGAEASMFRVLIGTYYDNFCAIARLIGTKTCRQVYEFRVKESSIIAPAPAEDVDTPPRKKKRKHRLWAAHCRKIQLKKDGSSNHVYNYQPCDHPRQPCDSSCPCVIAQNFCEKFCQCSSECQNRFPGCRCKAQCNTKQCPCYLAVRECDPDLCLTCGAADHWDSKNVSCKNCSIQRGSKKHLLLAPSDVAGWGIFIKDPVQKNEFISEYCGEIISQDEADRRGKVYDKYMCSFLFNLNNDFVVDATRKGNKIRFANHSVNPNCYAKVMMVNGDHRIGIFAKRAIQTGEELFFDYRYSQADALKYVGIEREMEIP
wild type PRC2 (wtPRC2) complex, sequence (Q15022 whole entry partner): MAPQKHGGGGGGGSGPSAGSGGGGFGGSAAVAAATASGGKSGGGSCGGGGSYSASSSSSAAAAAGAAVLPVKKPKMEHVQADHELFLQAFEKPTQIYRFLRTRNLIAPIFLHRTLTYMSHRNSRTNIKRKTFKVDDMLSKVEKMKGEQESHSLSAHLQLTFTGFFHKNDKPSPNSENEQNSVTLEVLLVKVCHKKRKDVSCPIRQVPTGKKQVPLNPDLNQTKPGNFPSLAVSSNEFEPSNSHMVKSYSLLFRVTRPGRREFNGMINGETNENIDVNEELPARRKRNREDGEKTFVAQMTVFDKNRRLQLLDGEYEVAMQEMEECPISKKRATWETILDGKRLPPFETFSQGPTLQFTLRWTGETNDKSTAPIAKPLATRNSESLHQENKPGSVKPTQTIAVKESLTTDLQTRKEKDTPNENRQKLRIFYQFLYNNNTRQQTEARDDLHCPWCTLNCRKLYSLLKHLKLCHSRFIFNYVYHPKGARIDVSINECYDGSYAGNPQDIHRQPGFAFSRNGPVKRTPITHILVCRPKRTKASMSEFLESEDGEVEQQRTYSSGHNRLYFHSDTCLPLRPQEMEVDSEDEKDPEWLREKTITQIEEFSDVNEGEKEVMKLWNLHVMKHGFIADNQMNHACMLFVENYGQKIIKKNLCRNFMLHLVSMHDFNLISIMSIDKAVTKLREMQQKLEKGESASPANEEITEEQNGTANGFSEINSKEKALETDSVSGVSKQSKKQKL

For `Cc1ncccc1-c1cnc(NCc2c(F)ccc3c2CCO3)n2cnnc12` [Example 2, N-((5-fluoro-2,3-dihydrobenzofuran-4-yl)methyl)-8-(2-methylpyridin-3-yl)-[1,2,4]triazolo[4,3-c]pyrimidin-5-amine], the IC50 in assay [1] amounted to 2.6 nM.

Consider `CN1CCN(C(=O)c2ccc(-c3cnc(NCc4c(F)ccc5c4CCO5)n4cnnc34)cc2)CC1` [Example 72, (4-(5-(((5-fluoro-2,3-dihydrobenzofuran-4-yl)methyl)amino)-[1,2,4]triazolo[4,3-c]pyrimidin-8-yl)phenyl)(4-methylpiperazin-1-yl)methanone], for which the IC50 in assay [2] stood at 17.5 nM; in assay [3] it was 9.3 nM.

Regarding `Cc1cc(C)c(-c2cnc(NCc3c(F)ccc4c3CCO4)n3cnnc23)cn1` [Example 222, 8-(4,6-dimethylpyridin-3-yl)-N-((5-fluoro-2,3-dihydrobenzofuran-4-yl)methyl)-[1,2,4]triazolo[4,3-c]pyrimidin-5-amine], the figures for the IC50 in assay [2] and in assay [3] were 14 nM and 11.7 nM, respectively.

On to `CS(=O)(=O)c1ccc(-c2cnc(NCc3cccc4c3CCO4)n3cnnc23)c(F)c1` [Example 26, N-((2,3-dihydrobenzofuran-4-yl)methyl)-8-(2-fluoro-4-(methylsulfonyl)phenyl)-[1,2,4]triazolo[4,3-c]pyrimidin-5-amine], for which the IC50 in assay [2] was 17.1 nM; in assay [3], 9.9 nM.

`Cc1cc(-c2cnc(NCc3cccc4c3CCO4)n3cnnc23)cnc1N1CCN(C)CC1` [Example 36, N-((2,3-dihydrobenzofuran-4-yl)methyl)-8-(5-methyl-6-(4-methylpiperazin-1-yl)pyridin-3-yl)-[1,2,4]triazolo[4,3-c]pyrimidin-5-amine]: the IC50 in assay [2] turned out to be 22.4 nM; in assay [3] it was 18.5 nM.

For the molecule `c1ccc(-c2cnc(NCc3cccc4occc34)n3cnnc23)cc1` [Example 217, N-(benzofuran-4-ylmethyl)-8-phenyl-[1,2,4]triazolo[4,3-c]pyrimidin-5-amine], the IC50 in assay [2] came to 111 nM; in assay [3], 363 nM.

As to `Fc1ccc2c(c1CNc1ncc(-c3cccnc3)c3nncn13)CCO2` [Example 44, N-((5-fluoro-2,3-dihydrobenzofuran-4-yl)methyl)-8-(pyridin-3-yl)-[1,2,4]triazolo[4,3-c]pyrimidin-5-amine], the IC50 in assay [2] came out at 19.2 nM; in assay [3], 12.8 nM.

As to `CCOc1ccc(-c2cnc(NCc3cccc4c3CCO4)n3cnnc23)cn1` [Example 63, N-((2,3-dihydrobenzofuran-4-yl)methyl)-8-(6-ethoxypyridin-3-yl)-[1,2,4]triazolo[4,3-c]pyrimidin-5-amine], the IC50 in assay [2] turned out to be 68.6 nM; in assay [3], 75.6 nM.

In the case of `c1cc(CNc2ncc(-c3cncnc3)c3nncn23)c2c(c1)OCC2` [Example 51, N-((2,3-dihydrobenzofuran-4-yl)methyl)-8-(pyrimidin-5-yl)-[1,2,4]triazolo[4,3-c]pyrimidin-5-amine], the IC50 in assay [2] is 346 nM; in assay [3], 136 nM.

On to `Cc1cc(S(C)(=O)=O)ccc1-c1cnc(NCc2c(F)ccc3c2CCO3)n2cnnc12` [Example 128, N-((5-fluoro-2,3-dihydrobenzofuran-4-yl)methyl)-8-(2-methyl-4-(methylsulfonyl)phenyl)-[1,2,4]triazolo[4,3-c]pyrimidin-5-amine], for which the figures for the IC50 in assay [2] and in assay [3] were 16.5 nM and 8.6 nM, respectively.
